Measurements published in patent US20070128217A1 (priority 2003, published 2007).

Experiments:
[1] = system: rabbit serum obtained by immunizing a rabbit with the SARS-CoV strain Frankfurt 1; type: binding; set-up: Binding of a rabbit serum to linear peptides / Binding of a rabbit serum to looped peptides / Rabbit serum linear peptides / Rabbit serum looped peptides / Binding of a rabbit serum to linear peptides of protein N of SARS-CoV Urbani (Rabbit serum linear peptides) / Binding of a rabbit serum to looped/cyclic peptides of protein N of SARS-CoV Urbani (Rabbit serum looped peptides): unit not given here
[2] = system: antibodies in sera from SARS patients (sera 1a, 1b, 2, 6, 37, 62, London, SARS-yellow, SARS-green); type: binding, human; set-up: Binding of serum 6 to linear peptides of protein X1 of SARS-CoV Urbani / Binding of serum 37 to linear peptides of protein X1 of SARS-CoV Urbani / Binding of serum 6 to looped/cyclic peptide (PEPSCAN-ELISA) / Binding of serum 37 to looped/cyclic peptide (PEPSCAN-ELISA) / Binding of serum 37 to looped/cyclic peptides of protein X1 of SARS-CoV Urbani / Binding of serum 6 to linear peptides of protein X2 / Binding of serum 37 to linear peptides of protein X2 / Binding of serum 37 to looped/cyclic peptides of protein X2 of SARS-CoV Urbani / Binding of serum 6 to linear peptides of protein M of SARS-CoV Urbani / Binding of serum 37 to linear peptides of protein M of SARS-CoV Urbani / Binding of serum 6 to looped/cyclic peptides of protein M of SARS-CoV Urbani / Binding of serum 37 to looped/cyclic peptides of protein M of SARS-CoV Urbani / Binding of serum 6 to linear peptides of protein X3 of SARS-CoV Urbani / Binding of serum 37 to linear peptides of protein X3 of SARS-CoV Urbani / Binding of serum 37 to looped/cyclic peptides of protein X3 of SARS-CoV Urbani / Binding of serum 6 to linear peptides of protein X4 of SARS-CoV Urbani / Binding of serum 37 to linear peptides of protein X4 of SARS-CoV Urbani / Binding of serum 37 to looped/cyclic peptides of protein X4 of SARS-CoV Urbani / Binding of serum 6 to linear peptides of protein X5 of SARS-CoV Urbani / Binding of serum 37 to linear peptides of protein X5 of SARS-CoV Urbani / Binding of serum 37 to looped/cyclic peptides of protein X5 of SARS-CoV Urbani / Binding of serum 6 to linear peptides of protein N of SARS-CoV Urbani / Binding of serum 37 to linear peptides of protein N of SARS-CoV Urbani / Binding of serum 6 to linear peptide (PEPSCAN-ELISA) / Binding of serum 1a to looped/cyclic peptides of protein N of SARS-CoV Urbani / Binding of serum 1b to looped/cyclic peptides of protein N of SARS-CoV Urbani / Binding of serum 2 to looped/cyclic peptides of protein N of SARS-CoV Urbani / Binding of serum 6 to looped/cyclic peptides of protein N of SARS-CoV Urbani / Binding of serum 37 to looped/cyclic peptides of protein N of SARS-CoV Urbani / Binding of serum 62 to looped/cyclic peptides of protein N of SARS-CoV Urbani / Binding of serum London to looped/cyclic peptides of protein N of SARS-CoV Urbani / Binding of serum SARS-green to looped/cyclic peptides of protein N of SARS-CoV Urbani: unit not given here
[3] = system: control sera (pooled serum of ten healthy LUMC hospital workers; commercial negative donor pooled serum from the Dutch bloodbank); type: binding, human; set-up: Binding of Control serum LUMC to linear peptides / Binding of Control serum Blood-bank to linear peptides / Binding of Control serum LUMC to looped peptides / Binding of Control Serum Blood-Bank to Looped peptides / Binding of Control serum LUMC to linear peptides of the protein M of SARS-CoV Urbani / Binding of Control serum Blood-bank to linear peptides of the protein M of SARS-CoV Urbani / Binding of Control serum LUMC to looped peptides of the protein M of SARS-CoV Urbani / Binding of Control Serum Blood-Bank to Looped peptides of the protein M of SARS-CoV Urbani: unit not given here

HLRMAGHPLGRCDIK was tested, and the “Rabbit serum linear peptides” value [1] was 0.0 and the “Rabbit serum looped peptides” value [1] was 0.5.

In the case of IMRCWLCWKCKSKNP, the “Binding of serum 1a to looped/cyclic peptide (PEPSCAN-ELISA)” value [2] is reported as 0.3, the “Binding of serum 1b to looped/cyclic peptide (PEPSCAN-ELISA)” value [2] is reported as 0.1 and the “Binding of serum 2 to looped/cyclic peptide (PEPSCAN-ELISA)” value [2] is reported as 0.1. The “Binding of serum 6 to looped/cyclic peptide (PEPSCAN-ELISA)” value [2] was 0.2, the “Binding of serum 37 to looped/cyclic peptide (PEPSCAN-ELISA)” value [2] was 0.3 and the “Binding of serum 62 to looped/cyclic peptide (PEPSCAN-ELISA)” value [2] was 0.3. For the same sequence, the “Binding of serum London to looped/cyclic peptide (PEPSCAN-ELISA)” value [2] was 0.1, the “Binding of serum SARS-green to looped/cyclic peptide (PEPSCAN-ELISA)” value [2] was 0.1 and the “Binding of serum SARS-yellow to looped/cyclic peptide (PEPSCAN-ELISA)” value [2] was 0.0. For the same sequence, the “Recognition of the peptide by sera of SARS-CoV infected individuals, and form (linear, looped/cyclic) in which it is recognized” value [2] was “recognized in linear form”, the “Binding of Control Serum Blood-Bank to Looped peptides” value [3] was 0.4 and the “Binding of Control serum Blood-bank to linear peptides” value [3] was 0.5. For the same sequence, the “Binding of Control serum LUMC to linear peptides” value [3] was 0.5 and the “Binding of Control serum LUMC to looped peptides” value [3] was 0.2.

With GFQFIGNLLLLFVTI the “Binding of a rabbit serum to linear peptides” value [1] was 0.9 and the “Binding of a rabbit serum to looped peptides” value [1] was 0.5.

EELKQLLEQWNLVIG was tested, and the “Rabbit serum linear peptides” value [1] was 0.4 and the “Rabbit serum looped peptides” value [1] was 0.4.

With TYEGNSPFHPLADNK the “Rabbit serum linear peptides” value [1] was 0.7 and the “Rabbit serum looped peptides” value [1] was 0.4.

For RGHLRMAGHPLGRCD, the “Rabbit serum linear peptides” value [1] was 0.0 and the “Rabbit serum looped peptides” value [1] was 0.3.

In the case of VIIRGHLRMAGHPLG, the “Rabbit serum linear peptides” value [1] is reported as 0.4 and the “Rabbit serum looped peptides” value [1] is reported as 0.6.

DNASPASTVHATATI was tested, and the “Binding of a rabbit serum to linear peptides” value [1] was 0.7 and the “Binding of a rabbit serum to looped peptides” value [1] was 0.3.

In the case of GTITVEELKQLLEQW, the “Recognition of the peptide by the rabbit serum” value [1] is reported as “recognized”.

With GAVIIRGHLRMAGHP the “Rabbit serum linear peptides” value [1] was 0.8 and the “Rabbit serum looped peptides” value [1] was 0.5.

VQQELYSPLFLTVAA was tested, and the “Rabbit serum linear peptides” value [1] was 0.5 and the “Rabbit serum looped peptides” value [1] was 0.2.
